Experimental data from patent US10919896B2, “Preparation and uses of pyrimidinone derivatives” (Cancer Research Technology Limited, priority 2016, dated 2021).
Counter-ions that a name gives are not always drawn.

Experiments:
[1] = system: Cdc7 (pS53MCM2 levels in HCT116 cells); assay: Cdc7 Cell Pharmacodynamics Assay Method 1: pS53MCM2 levels in HCT116 cells, 6 hours; assay type: cell-based; conditions: for EC50: Homo sapiens, HCT-116, 6 h, read-out: Biomarker Method 1 (pEC50) (converted)
Description: This protocol describes a method to investigate the inhibition of Cdc7 activity of compounds by measuring pS53MCM2 levels in cells after treatment.
• HCT116 cells (wild type P53 positive) • McCoys 5A media (PAA Laboratories Ltd, E15-022) • 10% FCS (Sera Laboratories International Ltd, EU000F Batch:108005) • 100× L-Glutamine (Invitrogen, 25030-024) • D-PBS without CaCl2 and MgCl2 (Invitrogen, ref 14190-094) • Trypsin/EDTA (Invitrogen 25300-054) • 2% BSA in PBS • Cell Extraction Buffer (Invitrogen FNN0011) • Protease inhibitor cocktail (Sigma P-2714) • PMSF 0.3M stock in DMSO (Sigma P7626) • Antibody-rabbit pMCM2 Ser53 (Bethyl #A300-756A) • Antibody-goat MCM2 (Bethyl #A300-122A) • Antibody-goat Anti Rabbit IgG HRP (Perbio Science UK Ltd 31462) • 1×PBS • FACE Wash buffer (0.02% Triton X100 in 1×PBS) • SuperSignal ELISA Pico Chemiluminescent Substrate (Perbio Science UK Ltd 37070) Method • 72 hours prior to the start of the experiment plate 1×10^6 HCT 116 cells in a 150 cm^2 flask in complete McCoys 5A media (+10% FCS+1× L-glutamine). • Plate 20,000 HCT116 cells per well in standard TC treated 96 well plate in 100 μL complete McCoys 5A media. • Allow cells to settle overnight in incubator set at 37° C. and 5% CO2. • Remove intermediate plate from fridge and place at 37° C. overnight to allow to equilibrate. • Cell treatment: cell assay plate 100 μL; daughter to cell transfer volume 3.33 μL; daughter volume 45 μL; mother plate to daughter volume 5 μL. • Once all cells are treated remove the cells to the incubator and incubate for 6 hours. • Dilute the capture antibody (total MCM2#A300-122A) 1 in 250 in the required volume of PBS (5 mL per assay plate) and add 50 μL to each well of a Hybond plate excluding wells 12E to 12H. In these wells add 50 μL PBS. Seal the plate and incubate at room temperature for a minimum of 2 hours. • Defrost aliquot of Invitrogen Cell Extraction Buffer (FNN0011) on ice and supplement with appropriate volume of both Sigma protease inhibitor cocktail (P-2714) and PMSF (final conc 1 mM from a 1 M stock in DMSO). • After the 6 hour cell treatment time tap out the media from the assay plates and place them in the −70° C. freezer for at least 5 minutes. • Remove plates from freezer and add 20 μL of ice cold complete lysis buffer on ice. Incubate cells for 30 minutes at 4° C. • Add 80 μL per well 2% BSA. • Transfer 80 μL from the lysis plate to the same wells in the capture/ELISA plate. Cover with plate seal and incubate plates overnight at 4° C. • Wash plates with PBS, remove any residual remaining liquid and add 50 μL per well of pMCM2 Ser53 antibody (#A300-756A) diluted 1 in 100 in 2% BSA. Cover plate and incubate at room temperature for 2 hours with gentle shaking. • Wash plates with PBS, remove any residual remaining liquid and Incubate with 50 μL goat anti rabbit antibody (1 in 800 dilution in 2% BSA) for 1 hour at room temperature. • Wash plates with PBS, remove any residual remaining liquid and add 50 μL mixed SuperSignal Pico substrate. • Incubate each plate for 5 minutes at room temperature shielding the plates from direct light (with a cover plate). Read plates with the luminescent detection. Method 2A and 2B

[2] = target: Cdc7/ASK (Homo sapiens, UniProt O00311); assay: Cdc7 Biochemical Assay Method 1: 384 well ELISA, whole protein substrate MCM2, antibody against Phospho MCM2 (S53); set-up: purchased; conditions: 2 μM ATP, read-out: Biochemical Method 1 (pIC50) (converted)
Cdc7/ASK, sequence (O00311 whole entry): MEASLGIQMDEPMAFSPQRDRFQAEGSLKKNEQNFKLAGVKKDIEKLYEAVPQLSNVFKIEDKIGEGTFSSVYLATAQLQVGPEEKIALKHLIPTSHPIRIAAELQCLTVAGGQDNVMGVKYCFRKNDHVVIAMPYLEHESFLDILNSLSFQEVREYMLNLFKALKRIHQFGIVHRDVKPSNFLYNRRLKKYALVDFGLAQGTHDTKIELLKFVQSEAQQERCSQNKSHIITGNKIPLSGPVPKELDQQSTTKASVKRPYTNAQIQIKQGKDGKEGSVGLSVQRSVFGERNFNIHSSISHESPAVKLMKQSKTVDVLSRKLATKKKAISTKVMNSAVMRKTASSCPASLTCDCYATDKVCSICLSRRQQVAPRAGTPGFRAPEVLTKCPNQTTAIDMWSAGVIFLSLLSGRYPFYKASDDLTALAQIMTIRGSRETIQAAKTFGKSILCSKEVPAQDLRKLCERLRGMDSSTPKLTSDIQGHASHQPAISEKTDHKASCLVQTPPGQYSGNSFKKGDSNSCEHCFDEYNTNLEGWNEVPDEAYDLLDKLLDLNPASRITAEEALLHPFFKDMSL
Cdc7/ASK, sequence (Q9UBU7 whole entry partner): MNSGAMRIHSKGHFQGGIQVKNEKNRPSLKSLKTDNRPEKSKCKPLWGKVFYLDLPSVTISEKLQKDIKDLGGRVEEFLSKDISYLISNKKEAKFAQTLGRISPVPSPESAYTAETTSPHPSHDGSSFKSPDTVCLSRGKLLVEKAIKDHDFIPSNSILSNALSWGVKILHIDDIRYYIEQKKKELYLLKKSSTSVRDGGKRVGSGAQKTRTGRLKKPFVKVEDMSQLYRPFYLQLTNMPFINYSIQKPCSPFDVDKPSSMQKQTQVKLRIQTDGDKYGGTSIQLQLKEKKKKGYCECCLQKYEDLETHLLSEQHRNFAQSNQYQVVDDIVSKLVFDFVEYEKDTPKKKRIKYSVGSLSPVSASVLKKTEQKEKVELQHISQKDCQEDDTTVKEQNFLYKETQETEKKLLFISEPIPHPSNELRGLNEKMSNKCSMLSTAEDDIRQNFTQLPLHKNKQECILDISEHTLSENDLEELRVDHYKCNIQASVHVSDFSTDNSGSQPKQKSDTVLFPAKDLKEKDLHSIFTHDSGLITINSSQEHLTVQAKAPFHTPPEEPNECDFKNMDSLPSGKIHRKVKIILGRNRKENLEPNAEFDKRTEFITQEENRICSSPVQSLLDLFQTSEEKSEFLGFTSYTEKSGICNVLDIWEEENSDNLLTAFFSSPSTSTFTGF
Summary of the method: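 MCM2 protein substrate was coated on nickel-chelate plates, then Cdc7/ASK was added with 2 μM ATP in 50 mM Tris-HCl pH 8.5, 10 mM MgCl2, 1 mM DTT, 4% DMSO, 90 min at room temperature. Phospho-MCM2 (S53) was detected by ELISA with an AP secondary and PNPP absorbance. IC50 was derived from % inhibition versus no-compound and no-enzyme controls.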

[3] = target: Cdc7/Dbf4 (Homo sapiens, UniProt O00311); assay: Cdc7 Biochemical Assay Method 3: Cdc7/Dbf4 Enzyme TR-FRET Assay measuring pS40MCM2; conditions: 1 μM ATP, read-out: Biochemical Method 3 (pIC50) (converted)
Cdc7/Dbf4, sequence (O00311 whole entry): as the sequence (O00311 whole entry) above
Cdc7/Dbf4, sequence (Q9UBU7 whole entry partner): as the sequence (Q9UBU7 whole entry partner) above
Summary of the method: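 2.5 nM Cdc7/Dbf4 incubated with 100 nM biotinylated MCM2-derived peptide and 1 μM ATP, 120 minutes at 25° C. Phospho-S40 detected by TR-FRET using anti-pS40 Mcm2 antibody, terbium anti-rabbit secondary and streptavidin-Alexa Fluor488.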

[4] = system: Cdc7 (pS40MCM2 levels in HCT116 cells); assay: Cdc7 Cell Pharmacodynamics Assay Method 2B: pS40MCM2 levels in HCT116 cells, 18 hours; assay type: cell-based; conditions: Homo sapiens, HCT-116, read-out: Biomarker Method 2B (pEC50) (converted)
Description: This protocol describes a method to investigate the inhibition of Cdc7 activity by measuring pS40MCM2 levels in cells, after treatment with compounds.
• HCT116 cells (ATCC, #CCL-247) • McCoys 5A with L-glutamine (Cellgro, #10-050-CV) • 10% FCS (Cellgro, #35-010-CV) • D-PBS without CaCl2 and MgCl2 (Cellgro, #21-031-CV) • Trypsin/EDTA (Cellgro, #25-052-CL) • BSA (Calbiochem, 126593) • Cell Extraction Buffer (Invitrogen FNN0011) • Protease inhibitor cocktail (Sigma P-2714) • PMSF 0.3M stock in DMSO (Sigma P7626) • Antibody-rabbit pMCM2 Ser40 (Abcam, AB133243) • Antibody-goat MCM2 (Bethyl #A300-122A) • Antibody-goat Anti Rabbit IgG HRP (Thermo, 31462) • SuperSignal ELISA Pico Chemiluminescent Substrate (Perbio Science UK Ltd 37069) • 10×PBS (Growcells, MRGF-6236) • Triton X100 (Sigma, P-T8787) • DMSO (Fisher, D128-1) • 2-Propanol (J. T. Baker, 9095-03) Method • Seed 1×10^6 HCT116 cells into each of two 175 cm^2 flask containing 30 mL Cell Growth Media and incubate at 37° C., 5% CO2 for 3 days. • Harvest the cells from one T175 cm^2 flask and count. • Dilute with Cell Growth Media to a cell density of 2×10^5. Dispense 100 μL to each well (20,000 HCT116 cells/well) of TC treated 96-well plate(s). • Allow cells to settle overnight in incubator set at 37° C. and 5% CO2. • Cell treatment: Transfer 0.25 μL/well from the compound plate to the wells of the cell plate(s). This is a 1:400 dilution of compound in the assay. • Once all cells are treated place the cells back to the incubator and incubate for either 6 hours (Method 2A) or 18 hours (Method 2B). • Dilute the capture antibody (total MCM2#A300-122A) 1 in 250 in the required volume of PBS (5 mL per assay plate, plus 5 mL for dead volume) and add 50 μL to each well of a Hybond plate except wells A12 & B12. Seal the plate and incubate at room temperature for a minimum of 2 hours. • Defrost aliquot of Invitrogen Cell Extraction Buffer (FNN0011) on ice and supplement with appropriate volume of both Sigma protease inhibitor cocktail (P-2714) and PMSF (final conc 1 mM from a 1 M stock in DMSO). • After the 6 hour or 18 hour cell treatment time, tap out the media from the assay plates and place them in the −70° C. freezer for at least 5 minutes. • Flick out the remaining liquid in the previously prepared capture Ab plate(s) and add 200 μL 2% BSA per well. Incubate for 1 hour at room temperature. • Remove plates from freezer and add 20 μL of ice cold complete lysis buffer. Incubate cells for 30 minutes at 4° C. • Add 30 μL per well 2% BSA • At the end of the 1 hour incubation, wash the Capture/ELISA plate(s) with Wash Buffer on the BioTek plate washer. • Transfer 40 μL per well of the lysis plate(s) to the same wells in the Capture/ELISA plate. Incubate cells overnight at 4° C. • At the end of the overnight incubation, wash the ELISA plate(s) with Wash Buffer on BioTek plate washer. • Prepare Detection Antibody Buffer and dispense 50 μL to all wells of ELISA plate(s) except wells G1 & H1. Cover plate and incubate at room temperature for 2 hours with gentle shaking. • At the end of the 2 hour incubation, wash the ELISA plate(s) with Wash Buffer on the BioTek plate washer. • Prepare the Conjugated Antibody Buffer and dispense 50 μL to all wells of ELISA plate(s). • Cover the plate and incubate at room temperature for 1 hour with gentle shaking. • At the end of the 1 hour incubation, wash the ELISA plate(s) with Wash Buffer on the BioTek plate washer. • Prepare Substrate Buffer and dispense 50 μL to all wells of ELISA plate(s). • Incubate for a minimum of 10 minutes and read plates on the EnVision 2100 Multilabel Reader (Mirror: Luminescence (404) & Luminescence 700 (212); Measurement Height: 6.5 mm; Measurement Time: 0.2 s). Method 3

| Structure (SMILES) | Biomarker Method 1 (pEC50) [1] | IC50 [2] | EC50 [1] | IC50 [3] | EC50 [4] |
| --- | --- | --- | --- | --- | --- |
| CC(C)(C)[C@H]1CN(c2nc(-c3ccnc(F)c3)[nH]c(=O)c2Cl)CCN1.Cl [Compound 160] | 7.50 | 1.62 nM | – | – | – |
| O=c1[nH]c(-c2ccncc2)nc(N2CCN[C@@H](Cc3ccccc3)C2)c1Cl [Compound 164] | – | 20.9 nM | 724 nM | – | – |
| C[C@@H]1CN(c2nc(-c3ccncc3)[nH]c(=O)c2Cl)[C@H](C)CN1 [Compound 166] | – | 35.5 nM | 2820 nM | – | – |
| O=c1[nH]c(-c2ccncc2)nc(N2CCCC(O)C2)c1Cl (stereo not shown) [Compound 167] | – | 8.13 nM | 832 nM | – | – |
| COc1ccc(C2CN(c3nc(-c4ccncc4)[nH]c(=O)c3Cl)CCN2)cc1 (stereo not shown) [Compound 169] | – | 30.2 nM | 562 nM | – | – |
| C[C@H]1CN(c2nc(-c3ccnc(F)c3)[nH]c(=O)c2Cl)CCN1 [Compound 171] | – | 1.17 nM | 72.4 nM | – | – |
| O=c1[nH]c(-c2ccncc2)nc(N2CCCC(C(F)(F)F)C2)c1Cl (stereo not shown) [Compound 176] | 5.56 | 20.9 nM | – | – | – |
| O=c1[nH]c(-c2ccncc2)nc(N2CCNC(c3cccs3)C2)c1Cl (stereo not shown) [Compound 177] | – | 5.13 nM | 214 nM | – | – |
| C[C@H]1CN(c2nc(-c3ccncc3)[nH]c(=O)c2Cl)CCN1CC(F)(F)F [Compound 181, 5-chloro-4-[(3S)-3-methyl-4-(2,2,2-trifluoroethyl)piperazin-1-yl]-2-(4-pyridyl)-1H-pyrimidin-6-one] | – | 2.4 nM | 132 nM | – | – |
| C[C@@H]1CN(c2nc(-c3ccnc(F)c3)[nH]c(=O)c2Cl)C[C@H](C)O1 [Compound 201] | – | – | – | 4.17 nM | 813 nM |
| O=C1COCCN(c2nc(-c3ccnc(F)c3)[nH]c(=O)c2Cl)C1 [Compound 208] | – | – | – | 0.49 nM | 64.6 nM |
| O=c1[nH]c(-c2ccnc(F)c2)nc(N2CCC(N3CCOCC3)CC2)c1Cl [Compound 244] | – | – | – | 4.37 nM | 398 nM |
| O=c1[nH]c(-c2ccnc(F)c2)nc(N2CCCC3(CCNC3)C2)c1Cl (stereo not shown) [Compound 258] | – | – | – | 0.832 nM | 562 nM |
| O=c1[nH]c(-c2ccnc(F)c2)nc(N2CCCC23CCCNC3)c1Cl (stereo not shown) [Compound 260] | – | – | – | 1.41 nM | 72.4 nM |
| O=c1[nH]c(-c2ccnc(F)c2)nc(N2CC[C@@H]3CNC[C@@H]32)c1Cl [Compound 261] | – | – | – | 0.813 nM | 537 nM |
| CN[C@H]1CCN(c2nc(-c3ccnc(F)c3)[nH]c(=O)c2Cl)C1 [Compound 271] | – | – | – | 1.48 nM | 295 nM |
| CN(C)[C@H]1CCN(c2nc(-c3ccnc(F)c3)[nH]c(=O)c2Cl)C1 [Compound 272] | – | – | – | 5.5 nM | 501 nM |
| C[C@]1(N)CCN(c2nc(-c3ccnc(F)c3)[nH]c(=O)c2Cl)C1 [Compound 273] | – | – | – | 0.646 nM | 427 nM |
| O=c1[nH]c(-c2ccnc(F)c2)nc(N2CCCC3NCCC32)c1Cl (stereo not shown) [Compound 275] | – | – | – | 0.794 nM | 2090 nM |
| O=c1[nH]c(-c2ccnc(F)c2)nc(N2CCCCC2)c1Cl [Compound 277] | – | – | – | 1.07 nM | 282 nM |
| C[C@@H]1CCCCN1c1nc(-c2ccnc(F)c2)[nH]c(=O)c1Cl [Compound 281] | – | – | – | 1.05 nM | 457 nM |
| CO[C@@H]1CCCN(c2nc(-c3ccnc(F)c3)[nH]c(=O)c2Cl)C1 [Compound 282] | – | – | – | 2.63 nM | 234 nM |
| CC(C)[C@H]1CN(c2nc(-c3ccncc3)[nH]c(=O)c2Cl)CCN1 [Compound 309] | – | 2 nM | 61.7 nM | – | – |
| CC(C)C1CN(c2nc(-c3ccnc(F)c3)[nH]c(=O)c2Cl)CCN1 (stereo not shown) [Compound 310] | – | 3.47 nM | 58.9 nM | – | – |
| CC1(C)CN(c2nc(-c3ccncc3)[nH]c(=O)c2Cl)CCN1 [Compound 361] | – | 2.34 nM | 2400 nM | – | – |
| O=c1[nH]c(-c2ccncc2)nc(N2CCNCC2)c1Cl [Compound 416, 5-chloro-4-piperazin-1-yl-2-(4-pyridyl)-1H-pyrimidin-6-one hydrochloride] | – | 1.95 nM | 110 nM | – | – |
